From PMC9535023, “Inhibition of phospholipase D1 induces immunogenic cell death and potentiates cancer immunotherapy in colorectal cancer” (Experimental & Molecular Medicine, 2022)
Where two headings read alike, the source gives them in different places.

How the values were obtained:
In vivo pharmacokinetics = assay: In vivo pharmacokinetics; design: species or system mouse; AUCinf: unit not given here; settings: for half-life: read-out: t1/2 (terminal half-life) (converted)
Description: Supplementary Table 4. Plasma pharmacokinetics of A3373
The pharmacokinetic parameters were estimated with non-compartmental analysis using
PKSolver, based on the concentration- time profiles of A3373 in the plasma samples following
single IV (5 mg/kg) and PO (10 mg/kg) dose in mice (n=3). Abbreviations: T1 /2, elimination
half life; Tmax, time to peak concentration; AUC, area under the concentration–time curve;
MRT, mean residence ti me; Vz, the volume in the terminal state; CL, clearance; Vss, steady-
state volume of distribution; F, absolute bioavailability. […]
Male ICR mice (8 weeks old, 30~35 g) were accli mated to the testing facility in a temperature
and humidity controlled condition for approximately a week prior to the study. 1 mg/mL of
A3373 solution in dimethylacetamide/tween 80/saline (10/10/80 vol%) was dosed orally (10
mg/kg in a volume of 10 mL/kg) or by tail vein injection (5 mg/kg in a volume of 5 mL/kg) to
the animals. About 40 μL of blood samples were collected in BD Microtainer plasma s eparator
tubes at selected times through the saphenous vein over 24 hour s post-dosing. Blood samples
were centrifuged at 6,000 x g for 5 minutes to separat e plasma and stored in a freezer until
analyzed. Protein precipitation was conduct ed on 15 μL aliquot of plas ma samples with 3
volumes of acetonitrile containing glipizide as analytical internal standard. After centrifugation,
the supernatant was analyzed by Agilent 6460 QQQ LC-MS/MS system in a negative MRM
mode. Briefly, chromatography was performed on a Phenomenex Kinetex C18 column (2.1 ×
50 mm, 2.6 μm) with a linear gradient of the mobil e phases 10 mM aqu eous ammonium acetate
and acetonitrile. […]

HCT116 cells = assay: Flow cytometry of do not eat-me signals and calreticulin; type: cell-based
[1] = test system: 21 purified protein kinases; assay: Kinase panel assay (KinaseProfiler); type: biochemical; settings: 1 µM A3373
Description: (§1) Supplementary materials and methods […]
In vitro kinase activity assays of A3373 were perfo rmed using the 21 kinase KinaseProfilerTM
(eurofins). Kinase activity was determined aft er in cubation with 1 µM A3373, acco rding to the
KinaseProfilerTM Service standard assay protocol s. […]

DLD1 cells [2] = assay: Cell cycle analysis (BrdU/7-AAD flow cytometry), DLD1; type: cell-based
Description: For cell cycle analysis, the cells were treated with Α3373 or 5-FU. The cells were labeled with 10 μΜ bromodeoxyuridine (BrdU) for 2 h. Subsequently, the cells were stained with 7-aminoactinomycin D (7-AAD, Invitrogen) and a fluorescein isothiocyanate (FITC)-conjugated anti-BrdU antibody (Invitrogen). Apoptotic cells were detected using an Annexin V-FITC Apoptosis Detection Kit (BD Biosciences). The cells were analyzed using BD FACSAria III (BD Biosciences), and data analysis was performed using FlowJo v10.0 (BD Biosciences).

PLD2 = target: T1, PLD2 (Mus musculus, UniProt P97813); assay: PLD2 activity in Pld1−/− MEFs; type: cell-based
T1 construct: endogenous in cells; host or cells: immortalized Pld1-/- mouse embryonic fibroblasts
Description: Cells were labeled with [H^3] myristic acid, and PLD activity was assessed by measuring the formation of [H^3] phosphatidylbutanol, which is the product of PLD-mediated transphosphatidylation, in the presence of 1-butanol, as previously described.
We further investigated the effect of A3373 on the enzymatic inhibition of PLD1 and PLD2 in Pld^+/+, Pld1^−/−, and Pld2^−/− MEFs. […] Kinase profiling was used to evaluate the general selectivity of the lead compounds. […] To further investigate whether inhibition of PLD1 by A3373 occurs by binding to PLD1, we first modified A3373 by adding biotinylation instead of the F present in its structure and measured PLD activity.

DLD1 cells [3] = assay: In vitro phagocytosis assay, DLD1 cells with THP1 macrophages; type: cell-based; settings: CFSE-labeled CRC cells cocultured with PMA-activated THP1 macrophages, vs vehicle
CRC cells [4] = assay: Measurement of extracellular ATP; type: cell-based
Description: For the quantitative determination of extracellular ATP, the cells were treated with Α3373. Extracellular release of ATP was assessed using the ENLITEN ATP Assay kit (Promega) according to the manufacturer’s instructions. For the HMGB1 level measurement, the supernatants of the cells were prepared by removing insoluble materials by centrifugation at 10,000 × g for 3 min at 4 °C. The levels of HMGB1 were measured using an HMGB1 detection kit (Chondrex) according to the manufacturer’s instructions.

[5] = Single oral dose toxicity in mice; settings: female and male mice
[6] = test system: AOM/DSS-induced mouse colon cancer; assay: AOM/DSS-induced colitis-associated CRC model; type: in vivo; settings: AOM/DSS mice, 10 mg/kg
Description: as §1
The AOM/DSS colorect al cancer model was est ablished using 6 -weeks-old C57BL/6 male mice (Koat ech). Mice were given a single intraperitoneal (IP) injection of the mutagen AOM (10 mg/kg), aft er whi ch t hey were given three periods drinking water contai ning 2.5% DSS for 5 days, followed by 15 days of normal water. AOM/DSS-induced mice were given either vehicle (PBS containing 8% DMSO and 1% Tween 80) or 10 mg/kg A3373 compound every day by oral administration for 45 days. […]

DLD1 cells [7] = assay: Cell viability (MTT); type: cell-based
Description: Cell viability was measured by MTT (3-(4,5-dimethylthiazol2-yl)-2,5-diphenyltetrazolium bromide, Sigma-Aldrich). Cells (5 × 10^3 cells/well) were seeded in a 96-well plate. […] After treatment, the cells were incubated with 0.5 mg/mL MTT in the media for 2 h and lysed with DMSO. Absorbance was measured at 570 nm using a VersaMax ELISA microplate reader (Molecular Devices).

CRC cells [8] = assay: TCF transactivation in CRC cells with an active Wnt pathway; type: cell-based
[9] = male, ICR, mouse, plasma, IV 5 mg/kg, mice
[10] = male, ICR, mouse, plasma, PO 10 mg/kg, mice

T1 sequence (P97813 whole entry): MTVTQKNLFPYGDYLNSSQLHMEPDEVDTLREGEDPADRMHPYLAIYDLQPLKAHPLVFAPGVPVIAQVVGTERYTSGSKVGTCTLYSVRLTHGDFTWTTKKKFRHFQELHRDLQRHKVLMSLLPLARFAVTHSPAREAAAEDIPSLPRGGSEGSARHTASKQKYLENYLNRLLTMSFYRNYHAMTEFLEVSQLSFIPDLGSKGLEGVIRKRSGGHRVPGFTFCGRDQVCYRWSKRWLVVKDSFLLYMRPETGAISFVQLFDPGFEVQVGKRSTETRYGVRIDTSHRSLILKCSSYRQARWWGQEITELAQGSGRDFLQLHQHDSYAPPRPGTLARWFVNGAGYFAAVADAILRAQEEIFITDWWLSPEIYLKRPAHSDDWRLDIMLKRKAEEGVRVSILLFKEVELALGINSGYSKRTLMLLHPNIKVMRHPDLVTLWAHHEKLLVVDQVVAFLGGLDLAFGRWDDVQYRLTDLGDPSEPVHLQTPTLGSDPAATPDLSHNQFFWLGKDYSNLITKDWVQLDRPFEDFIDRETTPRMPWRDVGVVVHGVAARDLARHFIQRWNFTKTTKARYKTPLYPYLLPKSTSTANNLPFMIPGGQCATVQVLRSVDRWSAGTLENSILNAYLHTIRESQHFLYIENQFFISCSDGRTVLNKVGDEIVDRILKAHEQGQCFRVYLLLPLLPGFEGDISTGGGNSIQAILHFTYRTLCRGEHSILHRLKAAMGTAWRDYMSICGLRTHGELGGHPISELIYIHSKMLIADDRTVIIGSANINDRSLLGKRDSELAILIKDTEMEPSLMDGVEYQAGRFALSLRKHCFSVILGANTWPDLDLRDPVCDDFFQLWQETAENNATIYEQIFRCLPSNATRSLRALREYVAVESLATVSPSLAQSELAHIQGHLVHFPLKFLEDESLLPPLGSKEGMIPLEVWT

## O=C(Nc1cc(C(F)(F)F)cc(C(F)(F)F)c1)c1cc2cc(F)ccc2[nH]1 [Compound A3373]
In vivo pharmacokinetics; IV 5 mg/kg, mice, 5 mg/kg
  t1/2 (terminal half-life): 3.2 h
In vivo pharmacokinetics; PO 10 mg/kg, male ICR mice
  AUCinf: 13,647.5 ± 1506.9
  Tmax: 0.5 h
In vivo pharmacokinetics; male, ICR, mouse, plasma, iv, 5 mg/kg, IV 5 mg/kg, mice, read-out: Vss (steady state volume)
  Vd: 2.1 ± 0.1 L/kg
In vivo pharmacokinetics; male, ICR, mouse, plasma, iv, 5 mg/kg, IV 5 mg/kg, mice, read-out: Vz
  Vd: 3.7 L/kg
In vivo pharmacokinetics; male, ICR, mouse, plasma, iv, 5 mg/kg, IV 5 mg/kg, mice
  half-life: ~3.2 h
In vivo pharmacokinetics; male, ICR, mouse, plasma, po, 10 mg/kg, PO 10 mg/kg, mice
  half-life: 3.8 h
In vivo pharmacokinetics; [9]
  AUC(0-inf): 6320 ng·h/mL
  AUC(0-t): 6300 ng·h/mL
  MRT: 2.6 h
In vivo pharmacokinetics; male, ICR, mouse, plasma, IV 5 mg/kg, mice, read-out: CL (clearance) (converted)
  clearance: 13.3 mL/min/kg
In vivo pharmacokinetics; male, ICR, mouse, plasma, PO 10 mg/kg vs IV 5 mg/kg, mice, read-out: F (oral bioavailability)
  bioavailability: 108%
In vivo pharmacokinetics; [10]
  AUC(0-inf): 13600 ng·h/mL
  AUC(0-t): 13500 ng·h/mL
  MRT: 5.6 h
In vivo pharmacokinetics; male, ICR, mouse, plasma, PO 10 mg/kg, mice, read-out: tmax
  Tmax: 0.5 h
In vivo pharmacokinetics; mouse, plasma, PO 10 mg/kg, male ICR mice
  Cmax: 2630 ± 183 ng/mL
HCT116 cells
  cell-surface CRT expression, in words: increased cell-surface CRT expression
HCT116 cells; CRC cells, flow cytometry
  levels of do not eat-me signals, in words: significantly reduced the levels of the “do not eat-me” signals
[1]
  effect on activity of 21 purified protein kinases: no effect
DLD1 cells [2]
  cell cycle / proliferation of CRC cells, in words: significantly decreased the proliferation of CRC cells
PLD2; 2 μM, Pld−/− MEFs
  PLD2 activity, in words: not PLD2 activity
PLD2; Pld1−/− MEFs
  IC50: 15.1 µM
DLD1 cells [3]
  population of CD11b+CFSE+ macrophages, in words: significantly increased the population of CD11b^+CFSE^+ macrophages
CRC cells [4]
  extracellular ATP, in words: significantly increased extracellular ATP
[5]
  approximate lethal dose: over 2000 mg/kg
[6]
  CD8 expression (IHC): increased the expression level of CD8
  active caspase-3, Ki67 and CD31 in tumor tissues (IHC): increased the level of active caspase-3 and decreased the levels of Ki67 and CD31
  do not eat-me and eat-me signals in tumor tissues (IHC): decreased the expression of “do not eat-me” signals but increased that of “eat-me” signals
  immune checkpoints (PD1, B7H4) and Foxp3 (IHC): reduced the expression of immune checkpoints (PD1 and B7H4) and Foxp3
  mortality: significantly lower
  number of intestinal polyps: significantly lower
  tumor formation: attenuated the tumor formation
  β-catenin and downstream target proteins (IHC): suppressed the levels of β-catenin and its downstream target proteins
DLD1 cells [7]; DLD1 cells
  potency in suppressing viability, comparison: higher potency in suppressing viability than that of VU0155069
DLD1 cells [7]; dose- and time-dependent
  viability of DLD1 cells, in words: significantly inhibited the viability
CRC cells [8]
  TCF transactivation in CRC cells: significantly suppressed TCF transactivation
